Patent US8932646B2, “Peroxide contact lens care solution” (Bausch & Lomb Incorporated, priority 2010, dated 2015)

Key:
[1] = Peroxide neutralization rate profile in Clear Care® lens case with platinum element; format: physicochemical
Excerpt: All of the peroxide neutralization data described herein was obtained with a hydrogen peroxide lens case provided in a contact lens care product package sold as Clear Care® by CibaVision. The Clear Care® product packages with the included lens case were purchased in the United States in 2009-10. Each of the hydrogen peroxide neutralization profiles and rate constants (as well as calculated the half-lives) stated herein and in the claims were obtained with a Clear Care® lens case.
The line plots shown in FIG. 5B is determined from the peroxide neutralization data of FIG. 5A over the initial 60 minutes, i.e. at time of 0, 5 min, 15 min, 30 min and 60 min. […] The pseudo first-order rate constant is determined from the slope of the line plots.
The peroxide neutralization rate profiles of select disinfecting solutions were determined as follows. […] Aliquots of the solution are removed at the stated time points and the concentration of hydrogen peroxide is determined by known analytical methods.
The aliquots of solution are titrated with 0.1N potassium permanganate in the presence of an acidic aqueous solution. […] The sample is placed in the system and analyzed using a built-in hydrogen peroxide determination method. […] Once an endpoint is determined the instrument calculates the hydrogen peroxide concentration of the sample. […]

[2] = Osmolality after peroxide neutralization; format: physicochemical; settings: disinfecting solution with 3 wt. % urea hydrogen peroxide

Compound	effect on the rate of peroxide neutralization ([1]; 0.1 wt. % or 1000 ppm)	effect on the rate of peroxide neutralization ([1]; 100 ppm)	osmolality of the solution following neutralization of the peroxide [2]
NCCS(=O)(=O)O [taurine]	much greater reduction in the rate of peroxide neutralization	very small effect on the rate of peroxide neutralization	–
NC(N)=O.OO [urea hydrogen peroxide]	–	–	about 600 mOsmol/kg
